The target of assay [1] is T1, MC4 (Homo sapiens, UniProt P32245).
T1 construct: expressed in transfected cells; host or cells: HEK 293
Description: Functional agonist assay in HEK 293 cells stably expressing melanocortin receptor (luciferase reporter / whole cell cAMP accumulation). Conditions: for EC50: agonist potency, concentration giving half maximal stimulation; for % Rel. Eff.: relative efficacy compared to NDP-alpha-MSH defined as 100% agonist. It counts as cell-based. From the text: Functional cell based assays are developed to discriminate agonists and antagonists.
Agonist Assay: HEK 293 cells stably expressing a human melanocortin receptor (see e.g., Yang, et al., Mol-Endocrinol., 11(3): 274-80, 1997) are dissociated from tissue culture flasks using a trypsin/EDTA solution (0.25%; Life Technologies, Rockville, Md.). Cells are collected by centrifugation and resuspended in DMEM (Life Technologies, Rockville, Md.) supplemented with 1% L-glutamine and 0.5% fetal bovine serum. Cells are counted and diluted to 4.5×10^5/ml.
A compound of formula I is diluted in dimethylsulfoxide (DMSO) (3×10^−5 to 3×10^−10 M final concentrations) and 0.05 volume of compound solution is added to 0.95 volumes of cell suspension; the final DMSO concentration is 0.5%. After incubation at 37° C./5% CO2 for 5 hours, cells are lysed by addition of luciferin solution (50 mM Tris, 1 mM MgCl2, 0.2% Triton-X100, 5 mM DTT, 500 micromolar Coenzyme A, 150 micromolar ATP, and 440 micromolar luciferin) to quantify the activity of the reporter gene luciferase, an indirect measurement of intracellular cAMP production.
Luciferase activity is measured from the cell lysate using a Wallac Victor 2 luminometer. The amount of lumen production which results from a compound of formula I is compared to that amount of lumens produced in response to NDP-alpha-MSH, defined as a 100% agonist, to obtain the relative efficacy of a compound. The EC50 is defined as the compound concentration that results in half maximal stimulation, when compared to its own maximal level of stimulation.
In the agonist assay, compounds are prepared as 10 mM and NDP-aMSH (control) as 33.3 μM stock solutions in 100% DMSO. These are serially diluted in 100% DMSO. The compound plate is further diluted 1:200 in compound dilution buffer (HBSS-092, 1 mM Ascorbic Acid, 1 mM IBMX, 0.6% DMSO, 0.1% BSA). The final concentration range being 10 μM-100 pM for compound and 33.33 nM-0.3 pM for control in 0.5% DMSO. Transfer 20 μl from this plate into four PET 96-well plates (all assays are performed in duplicate for each receptor).
HEK 293 cells stably transfected with the MC3R and MC4R were grown in DMEM containing 10% FBS and 1% Antibiotic/Antimycotic Solution. On the day of the assay the cells were dislodged with enzyme free cell dissociation solution and resuspended in cell buffer (HBSS-092, 0.1% BSA, 10 mM HEPES) at 1×e6 cells/ml. Add 40 μl of cells/well to the PET 96-well plates containing 20 ul diluted compound and control. Incubate @ 37° C. in a waterbath for 20 minutes. Stop the assay by adding 50 μl Quench Buffer (50 mM Na Acetate, 0.25% Triton X-100).
Radioligand binding assays were run in SPA buffer (50 mM Sodium Acetate, 0.1% BSA). The beads, antibody and radioligand were diluted in SPA buffer to provide sufficient volume for each 96-well plate. To each quenched assay well was added 100 ul cocktail containing 33.33 ul of beads, 33.33 μl antibody and 33.33 μl ^125 I-cAMP. This was based on a final concentration of 6.3 mg/ml beads, 0.65% anti-goat antibody and 61 pM of ^125I-cAMP (containing 25000-30000 CPM) in a final assay volume of 210 μl. The plates were counted in a Wallac MicroBeta counter after a 12-hour incubation.
The data was converted to pmoles cAMP using a standard curve assayed under the same conditions. The data was analyzed using Activity Base software to generate agonist potencies (EC50) and percent relative efficacy data to NDP-aMSH.

The target in assay [2] is T1, MC4. Put plainly: Radioligand binding assay: competitive inhibition of 125I-NDP-alpha-MSH binding to membranes of stably transfected HEK 293 cells. Conditions: 125I-NDP-alpha-MSH competition; Ki from IC50 by Cheng-Prusoff equation. On the procedure:
The radioligand binding assay is used to identify competitive inhibitors of ^125I-NDP-alpha-MSH binding to cloned human MCRs using membranes from stably transfected human embryonic kidney (HEK) 293 cells.
HEK 293 cells transfected with human or rat melanocortinin receptors are grown either as adherent monolayers or suspension culture. Monolayer cells are grown in roller bottle cultures at 37° C. and 5% CO2/air atmosphere in a 3:1 mixture of Dulbecco's modified Eagle medium (DMEM) and Ham's F12 containing 25 mM L-glucose, 100 units/ml penicillin G, 100 microgram/ml streptomyocin, 250 nanogram/ml amphoterin B, 300 microgram/ml genticin and supplemented with 5% fetal bovine serum. Monolayer cells are adapted to suspension culture (Berg et al., Biotechniques Vol. 14, No.6, 1993) and are grown in spinner or shaker flasks (37° C. and 7.5% CO2/air overlay) in a modified DME/F12 medium containing 0.1 mM CaCl2, 2% equine serum and 100 microgram/ml sodium heparin (to prevent cell-cell aggregation). Cells are harvested by centrifugation, washed in PBS, and pellets are stored frozen at −80° C. until membrane preparations.
The cell pellets are resuspended in 10 volumes of membrane preparation buffer (i.e., 1 g pellet to 10 ml buffer) having the following composition: 50 mM Tris pH 7.5 @ 4° C., 250 mM sucrose, 1 mM MgCl2, Complete® EDTA-free protease inhibitor tablet (Boehringer Mannheim), and 24 micrograms/ml DNase I (Sigma, St. Louis, Mo.). The cells are homogenized with a motor-driven dounce using 20 strokes, and the homogenate is centrifuged at 38,000×g at 4° C. for 40 minutes. […]
Solutions of a compound of formula I (300 picomolar to 30 micromolar) or unlabelled NDP-alpha-MSH (1 picomolar to 100 nanomolar) are added to 150 microliters of membrane binding buffer to yield final concentrations (listed in parantheses). […] The radioactivity is quantified in a Wallac Trilux Microplate Scintillation counter. […]

Usually EC50 stands for the concentration needed to bring the measured effect to its halfway point. High values mean lower potency in that assay, low ones higher potency in that assay. One may read the Ki as the equilibrium dissociation constant of an inhibitor or competing ligand from its target. Read a high Ki as weaker binding.

T1 sequence (P32245 whole entry): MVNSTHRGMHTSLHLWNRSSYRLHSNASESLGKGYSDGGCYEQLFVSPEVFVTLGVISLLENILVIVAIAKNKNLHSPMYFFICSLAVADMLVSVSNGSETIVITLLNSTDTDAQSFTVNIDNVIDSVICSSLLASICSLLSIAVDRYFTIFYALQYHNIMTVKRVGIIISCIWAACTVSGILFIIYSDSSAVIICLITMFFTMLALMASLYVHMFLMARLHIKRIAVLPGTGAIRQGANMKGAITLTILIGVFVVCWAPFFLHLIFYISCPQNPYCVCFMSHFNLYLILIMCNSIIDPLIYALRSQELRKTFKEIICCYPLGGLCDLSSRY

For `CN1CCC(Cc2ccccc2F)(N2CCN(C(=O)[C@@H](Cc3ccc(Cl)cc3)NC(=O)CC3NCc4ccccc43)CC2)CC1` (stereo partly drawn) [Example 4I], on MC4 [1], the EC50 was determined as 18.9 nM and the “% Rel. Eff.” value was found to be 114%. This molecule showed a Ki on MC4 [2] of 24.3 nM.
Turning to `CC(C)CC1(N2CCN(C(=O)[C@@H](Cc3ccc(Cl)cc3)NC(=O)CC3NCc4ccccc43)CC2)CCCC1` (stereo partly drawn) [Example 8I], on MC4 [1], a half-maximal effect (EC50) was put at 99.8 nM and the “% Rel. Eff.” value was found to be 124%. The same molecule displayed a Ki at MC4 [2] of 28.8 nM.
For `CN1CCC(CC2CCCCC2)(N2CCN(C(=O)[C@@H](Cc3ccc(Cl)cc3)NC(=O)CC3NCc4ccccc43)CC2)CC1` (stereo partly drawn) [Example 10I], in that order: 25.4 nM, 112% and 6.5 nM.

The values above are taken from patent publication US7314879B2, “Melanocortin receptor agonists” (Eli Lilly and Company, priority 2002, dated 2008).
